# In patent US8865758B2, “Pyrazolo piperidine derivatives as NADPH oxidase inhibitors” (Genkyotex SA, priority 2010, dated 2014):
# Molecular target: T1, NOX (Homo sapiens, UniProt P04839)
# T1 construct: HL60 differentiation to the neutrophil phenotype was triggered by adding Me2SO; endogenous in cells; host or cells: HL-60 cells differentiated with Me2SO (1.25% v/v, 6 days) to the neutrophil phenotype
# T1 sequence (P04839 2-570 limits assumed): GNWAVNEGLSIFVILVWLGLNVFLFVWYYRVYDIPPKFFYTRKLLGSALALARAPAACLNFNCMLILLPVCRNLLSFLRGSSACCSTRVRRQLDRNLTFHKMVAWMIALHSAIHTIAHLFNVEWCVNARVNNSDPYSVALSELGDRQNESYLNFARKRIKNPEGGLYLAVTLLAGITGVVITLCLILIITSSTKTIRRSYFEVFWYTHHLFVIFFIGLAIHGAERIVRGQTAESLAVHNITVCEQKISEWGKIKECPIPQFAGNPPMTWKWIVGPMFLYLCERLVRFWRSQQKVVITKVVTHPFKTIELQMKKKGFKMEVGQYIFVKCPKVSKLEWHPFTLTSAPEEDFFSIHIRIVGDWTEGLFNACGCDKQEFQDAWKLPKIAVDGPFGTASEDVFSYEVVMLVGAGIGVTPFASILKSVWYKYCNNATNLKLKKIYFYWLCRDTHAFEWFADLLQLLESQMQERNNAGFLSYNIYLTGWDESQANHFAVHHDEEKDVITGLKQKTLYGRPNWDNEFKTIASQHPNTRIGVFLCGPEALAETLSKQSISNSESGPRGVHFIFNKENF
# T1 sequence (P13498 1-195 partner): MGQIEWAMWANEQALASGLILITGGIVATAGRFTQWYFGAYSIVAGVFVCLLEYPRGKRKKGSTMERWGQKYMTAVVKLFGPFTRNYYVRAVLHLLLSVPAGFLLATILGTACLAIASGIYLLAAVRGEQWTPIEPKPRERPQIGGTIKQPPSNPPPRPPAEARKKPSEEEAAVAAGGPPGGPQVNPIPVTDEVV
# Test: Amplex Red measurement of extracellular hydrogen peroxide (NOX activity) in DMSO-differentiated HL60 cells
# Assay type: cell-based
# Settings: not given
# Procedure: Human acute myeloid leukemia cell line HL-60 was cultured in RPMI 1640 (Invitrogen) supplemented with 10% heat-inactivated calf serum, 2 mM glutamine, 100 U/mL penicillin (Sigma), and 100 μg streptomycin (Sigma) at 37° C. under a humidified atmosphere of 5% CO2. HL60 differentiation to the neutrophil phenotype was triggered by adding Me2SO (final concentration 1.25% v/v for 6 days) to the culture medium.
# Extracellular hydrogen peroxide was measured using Amplex UltraRed (Molecular Probes). Cells were trypsinized (1× Trypsin-EDTA), collected by centrifugation, and resuspended in HBSS supplemented with 1% glucose. Cells were seeded into black 96-well plates at a density of 50′000 cells in 200 μl testing buffer (HBSS 1% glucose containing 0.005 U/mL horseradish peroxidase (Roche) and 50 μM Amplex Red in the presence or absence of compounds according to the invention. As a control, DPI was included at a final concentration of 10 μM The plates were placed in the fluorescent Optima Fluorescent plate reader and kept at 37° C. during 20 min. Fluorescence was measured for […] with excitation and emission wavelengths of 544 nm and 590 nm respectively. NOX activities were expressed as % of the activity in control cells. Residual activity of DPI-treated cells was usually <10%. […]
# The Table 3 below summarizes the IC50 of NOX activity as measured by Amplex Red using DMSO-differentiated HL60 cells as described above: […]
row,IC50,Compound
1,< 5 µM,"O=c1c2c([nH]n1Cc1ccc(Cl)cc1)CCN(Cc1ccccc1)C2 [Compound 1, 5-benzyl-2-(4-chlorobenzyl)-1,2,4,5,6,7-hexahydro-3H-pyrazolo[4,3-c]pyridin-3-one]"
2,< 5 µM,"O=c1c2c([nH]n1-c1ccc(F)cc1Cl)CCN(Cc1ccccc1)C2 [Compound 2, 5-benzyl-2-(2-chloro-4-fluorophenyl)-1,2,4,5,6,7-hexahydro-3H-pyrazolo[4,3-c]pyridin-3-one]"
3,< 5 µM,"O=c1c2c([nH]n1-c1cccc(OCc3ccccc3)c1)CCN(Cc1ccccc1)C2 [Compound 3, 5-benzyl-2-[3-(benzyloxy)phenyl]-1,2,4,5,6,7-hexahydro-3H-pyrazolo[4,3-c]pyridin-3-one]"
4,< 5 µM,"O=c1c2c([nH]n1-c1ccc(F)cc1Cl)CCNC2 [Compound 4, 2-(2-chloro-4-fluorophenyl)-1,2,4,5,6,7-hexahydro-3H-pyrazolo[4,3-c]pyridin-3-one]"
5,< 5 µM,"Cn1[nH]c2c(c1=O)CN(Cc1ccccc1)CC2 [Compound 8, 5-benzyl-2-methyl-1,2,4,5,6,7-hexahydro-3H-pyrazolo[4,3-c]pyridin-3-one]"
6,< 5 µM,"O=c1c2c([nH]n1Cc1ccccc1)CCN(Cc1ccc(Cl)cc1)C2 [Compound 9, 2-benzyl-5-(4-chlorobenzyl)-1,2,4,5,6,7-hexahydro-3H-pyrazolo[4,3-c]pyridin-3-one]"
7,< 5 µM,"O=c1c2c([nH]n1Cc1ccccc1)CCN(Cc1ccccc1)C2 [Compound 12, 2,5-dibenzyl-1,2,4,5,6,7-hexahydro-3H-pyrazolo[4,3-c]pyridin-3-one]"
8,< 5 µM,"COc1cccc(-n2[nH]c3c(c2=O)CN(Cc2ccccc2)CC3)c1 [Compound 24, 5-benzyl-2-(3-methoxyphenyl)-1,2,4,5,6,7-hexahydro-3H-pyrazolo[4,3-c]pyridin-3-one]"
9,< 5 µM,"CN1N=C2CCN(Cc3ccc(Cl)cc3)CC2(Cc2cccnc2)C1=O (stereo not shown) [Compound 87, 5-(4-chlorobenzyl)-2-methyl-3a-(pyridin-3-ylmethyl)-2,3a,4,5,6,7-hexahydro-3H-pyrazolo[4,3-c]pyridin-3-one]"
10,< 5 µM,"CN1CCC(n2[nH]c3c(c2=O)CN(Cc2ccc(Cl)nc2)CC3)CC1 [Compound 96, 5-[(6-chloropyridin-3-yl)methyl]-2-(1-methylpiperidin-4-yl)-1,2,4,5,6,7-hexahydro-3H-pyrazolo[4,3-c]pyridin-3-one]"
11,< 5 µM,"O=c1c2c([nH]n1Cc1ccccc1)CCN(Cc1ccc(Cl)nc1)C2 [Compound 97, 2-benzyl-5-[(6-chloropyridin-3-yl)methyl]-1,2,4,5,6,7-hexahydro-3H-pyrazolo[4,3-c]pyridin-3-one]"
12,< 5 µM,"CS(=O)(=O)N1CCc2[nH]n(Cc3ccccc3)c(=O)c2C1 [Compound 102, 2-benzyl-5-(methylsulfonyl)-1,2,4,5,6,7-hexahydro-3H-pyrazolo[4,3-c]pyridin-3-one]"
13,< 5 µM,"Cc1ccc(S(=O)(=O)N2CCc3[nH]n(Cc4cn5ccccc5n4)c(=O)c3C2)cc1 [Compound 103, 2-(imidazo[1,2-a]pyridin-2-ylmethyl)-5-[(4-methylphenyl)sulfonyl]-1,2,4,5,6,7-hexahydro-3H-pyrazolo[4,3-c]pyridin-3-one]"

# System: NOX
# Test: Nitroblue tetrazolium (NBT) superoxide test in cells
# Assay type: cell-based, human
# Settings: DPI 10 μM, usually
# Procedure: Human microglia cell line (HMC3, human microglia clone 3) (Janabi et al., 1995, Neurosci. Lett. 195:105) were cultured in MEM (Eagle's minimum essential medium) containing 10% FBS with 50 U/ml penicillin G sodium 50 μg/ml streptomycin sulfate, and incubated at 37° C. for 24 hours. IFN-γ (human IFN-γ, Roche. 11 040 596 001) was added to the culture medium for a final concentration of 10 ng/ml 24 h, before detection of O2^− formation. […]
# Intracellular and extracellular superoxide was measured by a colorimetric technique using a quantitative nitroblue tetrazolium (NBT) test. SOD-inhibitable conversion of NBT to formazan, a fine blue precipitate, in the presence of superoxide anion was measured using Fluostar Optima spectrometer (BMG labtech). […] The absorption was measured at 630 nm. For calculation, the absorbance at 630 nm was normalized for each individual well. […] NOX activities were expressed as % of the activity in control cells. […]
row,Compound,Residual activity of DPI-treated cells (NOX activity as % of control cells)
1,"c1ccc([I+]c2ccccc2)cc1 [DPI, Diphenyl-iodonium]",< 10%

# System: NOX
# Test: Chemiluminescence (luminol) ROS measurement in cells
# Assay type: cell-based, human
# Settings: usually
# Procedure: ROS was measured using the chemiluminescent probe luminol. Cells were cultured and plated as for Amplex Red except that the Amplex Red agent was replaced by 10 μg/mL luminol (Sigma 09235). Light emission was recorded continuously at 37° C. for 60 minutes using the luminescence function of the FluoStar Optima fluorescent plate reader. The mean of the four blank values was subtracted from each corrected value for each time point. NOX activities were expressed as % of the activity in control cells. Residual activity of DPI-treated cells was usually <10%.
row,Compound,Residual activity of DPI-treated cells (NOX activity as % of control cells)
1,"c1ccc([I+]c2ccccc2)cc1 [DPI, Diphenyl-iodonium]",< 10%

# System: NOX
# Test: H2DCF-DA fluorescence in TGF-β stimulated HUVEC
# Assay type: cell-based, human
# Settings: usually
# Procedure: HUVEC are cultured in endothelial basal medium supplemented with hydrocortisone (1 μg/mL, Calbiochem), bovine brain extract (12 μg/mL), gentamicin (50 μg/mL, Calbiochem), amphotericin B (50 ng/mL, Calbiochem EGF (10 ng/mL, and 10% FCS until the fourth passage. When the fifth passage was started, cells were cultured with a lower concentration of FCS (2%) in the absence of EGF, if not indicated otherwise. All experiments were done with cells of the fifth passage. The cells were incubated with OxLDL (oxidized low-density lipoprotein) or its buffer as control for 24 h, before detection of O2^− formation.
# HUVEC were plated on coverslips and made quiescent overnight in 0.5% BSA before stimulation with TGF-β. Cells were loaded for 10 minutes with 5 μM CM-H2DCF-DA in phenol-red-free medium in the dark and then treated with TGF-β (R&D Systems) in the presence or absence of compounds according to the invention. Cells were then visualized by immunofluorescence microscopy after fixation and staining of the nuclei with DAPI or examined live using confocal microscopy. DCF fluorescence was visualized at an excitation wavelength of 488 nm and emission at 515 to 540 nm. […] For calculation, the absorbance at […] was normalized to absorbance at […] for each individual well. […] NOX activities were expressed as % of the activity in control cells. […]
row,Compound,Residual activity of DPI-treated cells (NOX activity as % of control cells)
1,"c1ccc([I+]c2ccccc2)cc1 [DPI, Diphenyl-iodonium]",< 10%
